Results from patent US20070190188A1, “Controlling Toxicity of Aminoquinoline Compounds” (The University of Mississippi, priority 2005, published 2007).

Assays:
Format in all cases: cell-based
[1] = test system: Mouse Liver Microsomes; assay: In vitro formation of methemoglobinemic metabolites with mouse liver microsomes and human erythrocytes
Procedure: (§1) In one aspect of the present invention, an in vitro assay is developed for evaluation of biotransformation reactions leading to generation of methemoglobinemic metabolites of 8-aminoquinolines. This method uses simultaneous incubation of a test compound with the hepatic microsomes or Baculosomes® (microsomes prepared from insect cells infected with recombinant baculovirus containing a cDNA insert for a specific human P450 isozyme and NADPH-P450 reductase) and human erythrocytes followed by determination of methemoglobin formation. This allows the unstable metabolites generated in situ to react with the human erythrocytes.

[2] = target: T1, CYP 1A2 (Homo sapiens, UniProt P05177); assay: Methemoglobinemic metabolite formation with Baculosomes, CYP 1A2; settings: mean ± S.D. of four
T1 construct: purchased; host or cells: insect cells infected with recombinant baculovirus
T1 sequence (P05177 2-516 limits assumed): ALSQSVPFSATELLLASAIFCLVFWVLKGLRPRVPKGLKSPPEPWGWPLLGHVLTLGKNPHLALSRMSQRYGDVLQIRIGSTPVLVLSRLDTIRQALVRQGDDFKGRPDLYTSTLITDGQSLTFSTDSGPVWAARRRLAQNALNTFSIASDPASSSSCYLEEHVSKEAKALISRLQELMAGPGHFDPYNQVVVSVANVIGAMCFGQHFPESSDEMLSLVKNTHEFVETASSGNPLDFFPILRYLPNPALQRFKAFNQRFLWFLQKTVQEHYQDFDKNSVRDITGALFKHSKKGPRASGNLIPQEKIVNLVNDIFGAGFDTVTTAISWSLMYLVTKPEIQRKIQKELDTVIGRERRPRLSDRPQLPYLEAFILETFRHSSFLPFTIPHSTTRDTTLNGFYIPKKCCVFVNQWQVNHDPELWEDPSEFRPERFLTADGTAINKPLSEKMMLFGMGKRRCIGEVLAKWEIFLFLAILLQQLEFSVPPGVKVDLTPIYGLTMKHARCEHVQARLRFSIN
Procedure: (§2) This method uses simultaneous incubation of a test compound with the hepatic microsomes or Baculosomes® (microsomes prepared from insect cells infected with recombinant baculovirus containing a cDNA insert for a specific human P450 isozyme and NADPH-P450 reductase) and human erythrocytes followed by determination of methemoglobin formation. This allows the unstable metabolites generated in situ to react with the human erythrocytes.

[3] = target: T2, CYP 2D6 (Homo sapiens, UniProt P10635); assay: Methemoglobinemic metabolite formation with Baculosomes, CYP 2D6; settings: mean ± S.D. of four
T2 construct: purchased; host or cells: insect cells infected with recombinant baculovirus
T2 sequence (P10635 whole entry): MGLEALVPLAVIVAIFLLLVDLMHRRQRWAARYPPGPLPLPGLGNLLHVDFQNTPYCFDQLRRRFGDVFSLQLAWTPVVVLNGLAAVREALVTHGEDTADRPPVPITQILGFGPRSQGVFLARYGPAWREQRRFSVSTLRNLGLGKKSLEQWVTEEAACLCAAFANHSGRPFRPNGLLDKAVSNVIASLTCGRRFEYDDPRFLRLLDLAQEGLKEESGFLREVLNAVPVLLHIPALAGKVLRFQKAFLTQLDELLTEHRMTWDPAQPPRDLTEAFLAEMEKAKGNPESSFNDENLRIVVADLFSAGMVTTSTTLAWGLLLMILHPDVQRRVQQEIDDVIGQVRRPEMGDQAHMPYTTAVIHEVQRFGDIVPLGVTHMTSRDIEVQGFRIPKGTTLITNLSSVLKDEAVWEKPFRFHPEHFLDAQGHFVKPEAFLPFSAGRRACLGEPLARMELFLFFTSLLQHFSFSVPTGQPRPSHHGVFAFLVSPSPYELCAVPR
Procedure: as §2

[4] = test system: pooled human liver microsomes; assay: In vitro formation of methemoglobinemic metabolites with pooled human liver microsomes and human erythrocytes
Procedure: as §1

[5] = target: T3, CYP 2C9 (Homo sapiens, UniProt P11712); assay: Methemoglobinemic metabolite formation with Baculosomes, CYP 2C9; settings: mean ± S.D. of four
T3 construct: purchased; host or cells: insect cells infected with recombinant baculovirus
T3 sequence (P11712 whole entry): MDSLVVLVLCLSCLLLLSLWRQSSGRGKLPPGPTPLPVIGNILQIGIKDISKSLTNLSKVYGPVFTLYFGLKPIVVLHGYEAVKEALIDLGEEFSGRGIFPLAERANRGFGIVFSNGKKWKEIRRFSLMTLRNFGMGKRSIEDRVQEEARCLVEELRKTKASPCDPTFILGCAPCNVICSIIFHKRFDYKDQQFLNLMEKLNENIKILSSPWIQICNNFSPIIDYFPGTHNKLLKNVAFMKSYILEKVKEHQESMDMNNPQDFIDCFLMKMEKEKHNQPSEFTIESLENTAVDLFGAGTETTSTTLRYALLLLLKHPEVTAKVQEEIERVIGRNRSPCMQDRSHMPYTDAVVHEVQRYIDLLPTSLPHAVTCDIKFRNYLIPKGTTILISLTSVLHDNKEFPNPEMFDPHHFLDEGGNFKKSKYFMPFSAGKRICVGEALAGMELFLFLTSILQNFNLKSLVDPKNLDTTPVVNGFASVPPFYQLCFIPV
Procedure: as §2

[6] = target: T4, CPY 2B6 (Homo sapiens, UniProt P20813); assay: Methemoglobinemic metabolite formation with Baculosomes, CYP 2B6; settings: mean ± S.D. of four
T4 construct: purchased; host or cells: insect cells infected with recombinant baculovirus
T4 sequence (P20813 1-491): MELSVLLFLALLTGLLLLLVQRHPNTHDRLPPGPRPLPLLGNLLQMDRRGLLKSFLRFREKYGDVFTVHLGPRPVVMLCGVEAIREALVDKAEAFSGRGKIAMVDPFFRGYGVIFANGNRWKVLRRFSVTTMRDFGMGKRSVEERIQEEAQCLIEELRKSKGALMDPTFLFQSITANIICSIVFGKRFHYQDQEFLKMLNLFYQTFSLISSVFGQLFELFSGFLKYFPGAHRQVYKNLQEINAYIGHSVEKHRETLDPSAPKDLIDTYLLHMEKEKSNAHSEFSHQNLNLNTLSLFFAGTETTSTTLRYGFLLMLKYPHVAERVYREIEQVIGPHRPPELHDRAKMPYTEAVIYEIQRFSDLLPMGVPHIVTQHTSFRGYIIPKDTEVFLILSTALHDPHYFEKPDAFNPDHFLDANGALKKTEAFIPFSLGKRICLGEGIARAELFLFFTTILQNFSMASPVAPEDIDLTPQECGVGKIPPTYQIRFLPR
Procedure: as §2

[7] = test system: human erythrocytes; assay: In vitro methemoglobin formation, human erythrocytes, control without microsomes
Procedure: as §1

[8] = target: T5, CYP 2E1 (Homo sapiens, UniProt P05181); assay: Methemoglobinemic metabolite formation with Baculosomes, CYP 2E1; settings: mean ± S.D. of four
T5 construct: purchased; host or cells: insect cells infected with recombinant baculovirus
T5 sequence (P05181 whole entry): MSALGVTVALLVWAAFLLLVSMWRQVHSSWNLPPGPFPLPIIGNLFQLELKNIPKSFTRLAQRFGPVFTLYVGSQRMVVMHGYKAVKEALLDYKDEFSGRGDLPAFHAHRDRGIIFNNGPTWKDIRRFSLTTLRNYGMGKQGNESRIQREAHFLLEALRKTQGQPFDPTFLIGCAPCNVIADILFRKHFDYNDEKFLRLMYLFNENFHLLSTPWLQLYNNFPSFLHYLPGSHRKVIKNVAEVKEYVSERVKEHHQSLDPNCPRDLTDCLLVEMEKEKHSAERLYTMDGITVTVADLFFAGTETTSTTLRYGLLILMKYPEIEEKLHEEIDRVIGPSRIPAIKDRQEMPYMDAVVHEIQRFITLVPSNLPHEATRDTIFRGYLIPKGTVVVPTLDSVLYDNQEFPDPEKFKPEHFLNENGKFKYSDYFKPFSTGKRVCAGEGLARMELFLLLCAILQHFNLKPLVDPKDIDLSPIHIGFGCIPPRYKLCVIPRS
Procedure: as §2

[9] = drug 100 μM, microsomes equivalent to 25 pmoles cytochrome P450, Mean ± S.D. of four

COc1cc(N[C@H](C)CCCN)c2nccc(C)c2c1Oc1ccc(Cl)c(Cl)c1 [NPC1161B]
formation of methemoglobenemic metabolites, Azithromycin ([1]; Mouse Liver Microsomes, 8-aminoquinoline with Azithromycin): 9.993 ± 1.306 | formation of methemoglobenemic metabolites, Erythromycin ([1]; Mouse Liver Microsomes, 8-aminoquinoline with Erythromycin): 3.133 ± 0.963 | formation of methemoglobenemic metabolites, Microsomes ([1]; Mouse Liver Microsomes, no macrolide): 11.24 ± 3.612 | % methemoglobin formation, Mouse Liver Microsomes [1, 9]: 11.240 ± 3.612% | % methemoglobin formed, CYP 1A2 [2]: 0.00% | % methemoglobin formed, CYP 2D6 [3]: 5.380 ± 1.402% | methemoglobin toxicity compared with primaquine and NPC 1161A ([4]; FIGS. 1 and 2, Table 1): significantly reduced methemoglobin toxicity | % methemoglobin formation, Pooled Human liver Microsomes [4, 9]: 7.455 ± 0.879% | formation of methemoglobenemic metabolites, Azithromycin ([4]; pooled human Liver Microsomes, 8-aminoquinoline with Azithromycin): 7.565 ± 1.276 | formation of methemoglobenemic metabolites, Erythromycin ([4]; pooled human Liver Microsomes, 8-aminoquinoline with Erythromycin): 0 | formation of methemoglobenemic metabolites, Microsomes ([4]; pooled human Liver Microsomes, no macrolide): 7.697 ± 1.392 | methemoglobin toxicity with macrolide antibiotics troleandomycin and erythromycin ([4]; pooled human liver microsomes, FIG. 7 and 8): almost completely abolished | % methemoglobin formed, CYP 2C9 [5]: 3.690 ± 1.660% | % methemoglobin formed, CPY 2B6 [6]: 2.855 ± 0.419% | % methemoglobin formed, Supersomes None ([7]; no Baculosomes, mean ± S.D. of four): 0.980 ± 0.493% | % methemoglobin formation, Control ([7]; no microsomes, drug 100 μM, Mean ± S.D. of four observations): 0.980 ± 0.439% | % methemoglobin formed, CYP 2E1 [8]: 3.801 ± 1.996%
